Test results taken from patent publication US20240238314A1, “TREATMENT OF ESSENTIAL TREMOR” (Sage Therapeutics, Inc., priority 2021, published 2024).

Tested on: individuals with essential tremor
Test: Phase 2 study, Compound 1 60 mg once daily for 28 days: TETRAS performance subscale part 4/6/7/8 total score
Assay type: in vivo, human
Conditions: Full Analysis Set
Description: 4) Upper limb tremor: Tremor is assessed during three maneuvers: forward horizontal reach posture, lateral “wing beating” posture and finger-nose-finger testing. Each upper limb is assessed and scored individually. The forward horizontal reach posture is held for 5 seconds. The lateral wing beating posture is held for 20 seconds. The finger-nose-finger movement is executed three times. Amplitude assessment should be estimated using the maximally displaced point of the hand at the point of greatest displacement along any single plane. For example, the amplitude of a pure supination-pronation tremor, pivoting around the wrist would be assessed at either the thumb or fifth digit.
The lines of the spiral should be approximately 1.3 cm (0.5 inch) apart. Then ask the subject to copy the spiral. Test and score each hand separately. Use a ballpoint pen. The pen should be held such that no part of the limb touches the table. Secure the paper on the table in a location that is suitable for the patient's style of drawing. Score the tremor in the spiral, not the movement of the limb. Each limb is assessed and scored individually. 0=normal. 1=slight: tremor barely visible. 2=mild: obvious tremor. 3=moderate: portions of figure not recognizable. 4=severe: figure not recognizable.
7) Handwriting: Have patient write the standard sentence “This is a sample of my best handwriting” using the dominant hand only. Patients must write cursively (i.e., no printing). They cannot hold or stabilize their hand with the other hand. Use a ballpoint pen. Secure the paper on the table in a location that is suitable for the patient's style of writing. Score the tremor in the writing, not the movement of the limb. 0=normal. 1=slight: untidy due to tremor that is barely visible. 2=mild: legible, but with considerable tremor. 3=moderate: some words illegible. 4=severe: completely illegible.
8) Dot approximation task: The examiner makes a dot or X and instructs the subject to hold the tip of the pen “as close as possible to the dot (or center of an X) without touching it, (ideally approximately 1 mm) for 10 seconds.” Each hand is scored separately. 0=no tremor. 1=tremor is barely visible. 1.5=tremor is visible, but less than 1 cm. 2=tremor is 1-<3 cm amplitude. 2.5=tremor is 3-<5 cm amplitude. 3=tremor is 5-<10 cm amplitude. 3.5=tremor is 10-<20 cm amplitude. 4=tremor is >20 cm amplitude.
Participants were 18 to 80 years of age, inclusive, diagnosed of ET of at least 3 years duration with scores of at least 1.5 for each of the six items that comprised the combined total upper limb TETRAS (total performance subscale part 4) with the total score for the dominant upper limb (the sum of the 3 items for either the right or left upper limb, whichever is dominant) being at least 5.5, at both Screening and predose on Day 1.
Participants were randomized to receive Compound 1 60 mg or placebo once daily in the morning on a 1:1 basis. If participants reported a TEAE considered by investigator to be related to Compound 1 and not tolerable, investigator might reduce the dose of Compound 1 from 60 mg in 15 mg decrements (i.e., 60 mg, to 45 mg, to 30 mg), as medically appropriate. If intolerable TEAEs persist at the 30 mg dose, Compound 1 was permanently stopped.
This study included a Screening Period of up to 28 days, a 29-day treatment period consisting of 28 days of dosing with the end of treatment visit intended to be on Day 29 at trough, and a 14-day follow-up period relative to final dose. Study patients were not taking other medications for essential tremor during the 28-day treatment period.
Similarly, an MMRM was be used for the analysis of the following variables: changes from baseline in TETRAS performance subscale part 4, 6, 7, and 8 combined score, and TETRAS ADL score. For each model, the comparison of interest was between Compound 1 tablets and matching placebo at the 15-day time point. […]

For COC[C@@]1(O)CC[C@H]2[C@@H](CC[C@@H]3[C@@H]2CC[C@]2(C)[C@@H](C(=O)Cn4nnc(C)n4)CC[C@@H]32)C1 [Compound 1], the “LSMean difference vs placebo in change from baseline in TETRAS performance subscale part 4/6/7/8 total score” value (shortened to “LSMean difference vs placebo in change”) (Day 8) was −1.22, the “Model-based LSMean (SE) change from baseline in TETRAS performance subscale part 4/6/7/8 total score” value (“Model-based LSMean (SE) change” for short) (Day 8) was −2.84 (0.579) and the “LSMean difference vs placebo in change” value (Day 15, 5 hr postdose) was −1.03. For the same compound, the “Model-based LSMean (SE) change” value (Day 15, 5 hr postdose) was −4.59 (0.840), the “LSMean difference vs placebo in change” value (Day 15, 8 hr postdose) was −0.23 and the “Model-based LSMean (SE) change” value (Day 15, 8 hr postdose) was −3.75 (0.755). The “LSMean difference vs placebo in change” value (Day 15, predose) was −0.55, the “Model-based LSMean (SE) change” value (Day 15, predose) was −2.63 (0.671) and the “LSMean difference vs placebo in change” value (Day 22) was −0.77. The “Model-based LSMean (SE) change” value (Day 22) was −2.93 (0.691), the “LSMean difference vs placebo in change” value (Day 29) was −0.59 (−2.45, 1.28) and the “Model-based LSMean (SE) change” value (Day 29) was −2.81 (0.699). The “LSMean difference vs placebo in change” value (Day 29, listed as Cmpd 1) was −0.59, the “LSMean difference vs placebo in change” value (Day 42) was 1.96 and the “Model-based LSMean (SE) change” value (Day 42) was −1.17 (0.673).
